Publication PMC10296061, “Inhibition of the Mitochondrial Carnitine/Acylcarnitine Carrier by Itaconate through Irreversible Binding to Cysteine 136: Possible Pathophysiological Implications” (Biomolecules, 2023)
Changes are numbered by the printed parent chain.

Assays:
Format in all cases: biochemical
[1] = target: T1, CAC C23V/C58V/C89S/C155V/C283S mutant (Rattus norvegicus, UniProt P97521, C155V/C23V/C283S/C58V/C89S); assay: Transport assay in proteoliposomes, CAC mutant containing the sole C136; conditions: read-out: IC50 for itaconate inhibition
T1 construct: made in house; host or cells: E. coli C0214
T1 sequence (P97521 1-301 C23V/C58V/C89S/C155V/C283S): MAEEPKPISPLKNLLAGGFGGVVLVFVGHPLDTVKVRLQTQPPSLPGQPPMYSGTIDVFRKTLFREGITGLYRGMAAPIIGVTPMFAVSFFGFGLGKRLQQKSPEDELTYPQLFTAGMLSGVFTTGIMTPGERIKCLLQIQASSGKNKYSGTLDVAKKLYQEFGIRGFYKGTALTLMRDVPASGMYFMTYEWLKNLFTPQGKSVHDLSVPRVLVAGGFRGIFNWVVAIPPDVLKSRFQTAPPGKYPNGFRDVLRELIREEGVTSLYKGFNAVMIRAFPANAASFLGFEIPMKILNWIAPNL
Description: (§1) As previously described, the pMW7-WTratCAC recombinant plasmid was used for over-expressing the rat CAC [22]. The overlap extension method was used to introduce the mutations; in the main time, NdeI and HindIII restriction sites were also added using appropriate primers. The PCR products were purified by the QIAEX II Gel Extraction Kit (QIAGEN) and digested with NdeI and HindIII and then ligated into the pMW7. All mutations were verified by DNA sequencing. The resulting plasmid constructs were transformed into E. coli C0214. Overexpression, inclusion body fraction preparation, and purification of the CAC proteins were performed as previously described. […]
(§2) To test the transport activity of the CAC, 550 μL of proteoliposomes was passed through a Sephadex G-75 column to remove the external substrate. […] Transport rates were measured in 10 min, i.e., within the initial linear range of the time course, at 25 °C. After terminating the transport reaction, the external substrate was removed by chromatography on the Sephadex G-75 column, and the intraliposomal radioactivity was measured. […]
(§3) Figure 3 Identification of residue responsible for itaconate inhibition. […] Transport activity of the WT (○), C136A (●), C155A (Δ), C23V/C58V/C89S/C155V/C283S (▲), and C23V/C58V/C89S/C136V/C155V/C283S (□) was measured by adding 0.1 mM [^3H]carnitine after treatment by itaconate at the indicated concentrations. […]

CAC C136A mutant = target: T2, CAC C136A mutant (Rattus norvegicus, UniProt P97521, C136A); assay: Transport assay in proteoliposomes, CAC mutant C136A; conditions: mutant lacking C136; read-out: IC50 for itaconate inhibition
T2 construct: made in house; host or cells: E. coli C0214
T2 sequence (P97521 1-301 C136A): T1 sequence (P97521 1-301 C23V/C58V/C89S/C155V/C283S) with V23C, V58C, S89C, C136A, V155C, S283C
Description: as §1, §2, §3

[2] = target: T3, CAC C23V/C58V/C89S/C136V/C155V/C283S (C-less) mutant (Rattus norvegicus, UniProt P97521, C136V/C155V/C23V/C283S/C58V/C89S); assay: Transport assay in proteoliposomes, C-less CAC mutant
T3 construct: made in house; host or cells: E. coli C0214
T3 sequence (P97521 1-301 C23V/C58V/C89S/C136V/C155V/C283S): T1 sequence (P97521 1-301 C23V/C58V/C89S/C155V/C283S) with C136V
Description: As previously described, the pMW7-WTratCAC recombinant plasmid was used for over-expressing the rat CAC [22]. The overlap extension method was used to introduce the mutations; in the main time, NdeI and HindIII restriction sites were also added using appropriate primers. The PCR products were purified by the QIAEX II Gel Extraction Kit (QIAGEN) and digested with NdeI and HindIII and then ligated into the pMW7. All mutations were verified by DNA sequencing. The resulting plasmid constructs were transformed into E. coli C0214. Overexpression, inclusion body fraction preparation, and purification of the CAC proteins were performed as previously described.
As previously described, recombinant CAC (WT and mutants) and ORC1 proteins were used for proteoliposome formation. For experiments with native CAC, ORC1, or ANT proteins, rat liver mitochondria, or HeLa cell mitochondria, the latter for the CAC alone, were first purified using the standard procedure of cell disruption and differential centrifugation. Then proteins were extracted using 3% Triton X-100 and reconstituted as described for the recombinant proteins. The concentration of intraliposomal carnitine and ornithine was 15 mM and 30 mM, respectively, in all samples.
To test the transport activity of the CAC, 550 μL of proteoliposomes was passed through a Sephadex G-75 column to remove the external substrate. Six hundred μL of the turbid eluate was collected, divided into samples of 100 μL each, and used for transport measurement by the inhibitor-stop method. Transport was started by adding 0.1 mM [^3H]carnitine ([^3H]ornitine or [^3H]ATP) to proteoliposome samples and stopped with 1.5 mM NEM (N-ethylmaleimide) at the indicated time interval. In the control samples, NEM was added with the labeled substrate at time zero. Transport rates were measured in 10 min, i.e., within the initial linear range of the time course, at 25 °C. After terminating the transport reaction, the external substrate was removed by chromatography on the Sephadex G-75 column, and the intraliposomal radioactivity was measured. The experimental values were corrected by subtracting the controls.
Figure 3 Identification of residue responsible for itaconate inhibition. (a) Dose–response analysis of the Cys mutants of CAC for the inhibition by itaconate was performed. Transport activity of the WT (○), C136A (●), C155A (Δ), C23V/C58V/C89S/C155V/C283S (▲), and C23V/C58V/C89S/C136V/C155V/C283S (□) was measured by adding 0.1 mM [^3H]carnitine after treatment by itaconate at the indicated concentrations. Transport activity (µmol/10 min/mg) is: WT 1.80 ± 0.31; C136A 0.91 ± 0.10; C155A 1.00 ± 0.17; C23V/C58V/C89S/C155V/C283S 1.02 ± 0.159; C23V/C58V/C89S/C136V/C155V/C283S 0.71 ± 0.22. (b) Dose–response analysis of proteoliposomes reconstituted native (○) or recombinant ORC (●) incubated with itaconate at the indicated concentrations. Transport activity was measured by adding 0.1 [^3H]ornithine, respectively, as described in Materials and Methods. The data are expressed as a percent of the controls (no addition of itaconate) and are means ± SD from three independent experiments.
Figure 4 Lysine contribution to CAC inhibition by itaconate. Protection of PLP (pyridoxal phosphate) from inhibition by itaconate on C-less CAC was carried out. C-less mutant (i.e., C23V/C58V/C89S/C136V/C155V/C283S) was reconstituted into proteoliposomes and treated or not treated with 30 mM PLP for 10 min (“Contr” or “PLP” column, respectively). […]

C=C(CC(=O)O)C(=O)O [itaconate] was tested. Which IC50 [1] did it give?
Its IC50 is 4 ± 0.14 mM.

And the IC50 (CAC C136A mutant)?
The IC50 was 15 ± 2.1 mM.

What about the “effect on PLP pretreated (protected) C-less CAC” value ([2]; 15 mM itaconate added to 30 mM PLP pretreated protein, reactants removed by G-75) of the same molecule?
Its value is “inefficacy”.

What about the “effect on C-less CAC transport” value ([2]; 15 mM itaconate, no PLP preincubation) of the same molecule?
The value was “inhibited”.

What about the IC50 ([2]; C-less mutant, read-out: IC50 for itaconate inhibition) of the same molecule?
Its IC50 is 15 ± 2.4 mM.
